According to the supplement of paper PMC10307832:

What was measured:
Experiment in all cases: relative viability (nuclei count vs DMSO), 5 days (fraction); higher = more cells survive
Bosutinib + Linsitinib = compound: COc1cc(Nc2c(C#N)cnc3cc(OCCCN4CCN(C)CC4)c(OC)cc23)c(Cl)cc1Cl [Bosutinib] + C[C@]1(O)C[C@@H](c2nc(-c3ccc4ccc(-c5ccccc5)nc4c3)c3c(N)nccn32)C1 [Linsitinib] (partner 1 µM)
Procedure, shortened: (§1)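 Lung cancer cell lines were seeded in 1536-well plates and dosed by pin tool the next day, with either a single drug or a fixed anchor-drug dose combined with five library-drug doses (not always all listed) spaced in √10 steps. Five days later, one step fixed the cells and stained their nuclei (final 0.05% Triton X-100, 1% formaldehyde, 1 ug/ml Hoechst), and nuclei were counted on 4× images. Relative viability is the nuclei count in treated wells divided by the count in vehicle wells, and each value is the median of duplicate plates.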

Bosutinib + Bortezomib = compound: COc1cc(Nc2c(C#N)cnc3cc(OCCCN4CCN(C)CC4)c(OC)cc23)c(Cl)cc1Cl [Bosutinib] + CC(C)C[C@H](NC(=O)[C@H](Cc1ccccc1)NC(=O)c1cnccn1)B(O)O [Bortezomib] (partner 0.002 µM)
Procedure, shortened: as §1

Bosutinib + Tozasertib = compound: COc1cc(Nc2c(C#N)cnc3cc(OCCCN4CCN(C)CC4)c(OC)cc23)c(Cl)cc1Cl [Bosutinib] + Cc1cc(Nc2cc(N3CCN(C)CC3)nc(Sc3ccc(NC(=O)C4CC4)cc3)n2)n[nH]1 [Tozasertib] (partner 0.1 µM)
Procedure, shortened: as §1

Bosutinib + Pemetrexed = compound: COc1cc(Nc2c(C#N)cnc3cc(OCCCN4CCN(C)CC4)c(OC)cc23)c(Cl)cc1Cl [Bosutinib] + Nc1nc2[nH]cc(CCc3ccc(C(=O)N[C@@H](CCC(=O)O)C(=O)O)cc3)c2c(=O)[nH]1 [Pemetrexed] (partner 0.2 µM)
Procedure, shortened: as §1

Bosutinib + Phenformin = compound: COc1cc(Nc2c(C#N)cnc3cc(OCCCN4CCN(C)CC4)c(OC)cc23)c(Cl)cc1Cl [Bosutinib] + N=C(N)NC(=N)NCCc1ccccc1 [Phenformin] (partner 250 µM)
Procedure, shortened: as §1

Cell Line	relative viability (Bosutinib + Linsitinib; first compound 0.01 µM)	relative viability (Bosutinib + Linsitinib; first compound 0.03162 µM)	relative viability (Bosutinib + Linsitinib; first compound 0.1 µM)	relative viability (Bosutinib + Linsitinib; first compound 1 µM)	relative viability (Bosutinib + Bortezomib; first compound 0.01 µM)	relative viability (Bosutinib + Bortezomib; first compound 0.03162 µM)	relative viability (Bosutinib + Bortezomib; first compound 0.1 µM)	relative viability (Bosutinib + Bortezomib; first compound 1 µM)	relative viability (Bosutinib + Tozasertib; first compound 0.01 µM)	relative viability (Bosutinib + Tozasertib; first compound 0.03162 µM)	relative viability (Bosutinib + Tozasertib; first compound 0.1 µM)	relative viability (Bosutinib + Tozasertib; first compound 1 µM)	relative viability (Bosutinib + Pemetrexed; first compound 0.01 µM)	relative viability (Bosutinib + Pemetrexed; first compound 0.03162 µM)	relative viability (Bosutinib + Pemetrexed; first compound 0.1 µM)	relative viability (Bosutinib + Pemetrexed; first compound 1 µM)	relative viability (Bosutinib + Phenformin; first compound 0.01 µM)	relative viability (Bosutinib + Phenformin; first compound 0.03162 µM)	relative viability (Bosutinib + Phenformin; first compound 0.1 µM)	relative viability (Bosutinib + Phenformin; first compound 1 µM)
NCI-H647	0.913	1.11	1.21	0.817	1.06	1.06	0.919	0.405	0.38	0.203	0.389	0.201	0.221	0.179	0.162	0.171	0.606	0.494	0.436	0.348
SW 1573	0.778	0.75	0.807	0.801	1.05	1.06	0.917	1.02	0.24	0.166	0.119	0.202	0.796	0.791	0.911	0.838	0.411	0.357	0.358	0.27
HCC-15	0.905	0.837	0.954	0.803	1.05	1.06	1.08	0.915	0.474	0.418	0.361	0.328	0.227	0.244	0.226	0.221	0.478	0.466	0.471	0.389
NCI-H2126	0.645	0.717	0.687	0.628	1.06	1.1	1.07	1.11	0.823	0.811	0.828	0.763	0.659	0.645	0.694	0.658	0.519	0.567	0.544	0.568
NCI-H2085	0.778	0.865	0.835	1	0.982	0.969	1.02	1.04	0.782	0.692	0.765	0.738	0.869	0.863	0.87	0.736	0.825	0.705	0.652	0.515
BEN	0.981	0.798	1.01	0.604	0.726	0.986	0.923	0.765	0.499	0.439	0.48	0.539	0.641	0.772	0.746	0.576	0.254	0.257	0.253	0.25
